Measured values: PMC9928118, “Funneling modulatory peptide design with generative models: Discovery and characterization of disruptors of calcineurin protein-protein interactions” (PLOS Computational Biology, 2023)

Experiments:
[1] = target: T1, Calcineurin (Cn) catalytic domain (Cn A), PxIxIT binding site (Homo sapiens, UniProt Q08209, L343A/M347D/Y341S); assay: Fluorescence polarization (FP) competition assay against FITC-labeled PVIVIT peptide; conditions: for Ability to compete with PVIVIT for Cn binding: 100nM FITC-labeled PVIVIT peptide, 4uM Cn A, result in words; for IC50: read-out: IC50 (competition with FITC-labeled PVIVIT peptide for Cn binding), 100nM FITC-labeled PVIVIT peptide, 4uM Cn A, variable peptide concentrations, 96-well plate, triplicate, single site inhibition model fit, NB = No binding
T1 construct: the gene encoding to residues 2–347 with substitutions Y341S, L343A, and M347D was expressed as a cleavable GST fusion protein; GST; made in house; host or cells: E. coli BL21
Method: Polarization levels were read and normalized values were fitted to a single site model.
Selected peptides were synthesized and their ability to specifically bind the Cn PxIxIT binding site was evaluated by FP competition assay (Methods).
The catalytic domain of Cn was expressed as described in [84, 85]. […] Growing in LB, after reaching to OD(600nm) = 0.8, protein expression was induced by the addition of 1 mM IPTG at 25°C. The cells were harvested after 16h and resuspended in PBS-based lysis buffer suitable for downstream purification onto GST column (Glutathione Sepharose 4 Fast Flow) of the soluble fraction after disrupted by sonication and remove of all non-soluble debris by centrifuge. Elution from the GST column was further purified by size exclusion chromatography with the superdex75 column.
Fluorescence measurements were performed on samples arrayed in a 96-well plate using Biotek HybridH1 reader equipped with a polarized optic system. All measurements were done in triplicate.

GST-tagged Cn [2] = assay: PEPperPRINT peptide microarray binding assay with GST-tagged Cn; conditions: GST-tagged Cn, mean over the duplicate spots (Location on chip)
Procedure, shortened: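 Qualitative binding: peptides printed on a PEPperPRINT microarray were incubated overnight at 4 °C with 1 mg/ml GST-tagged Cn, then detected with Alexa-Fluor 647 anti-GST antibody. Log fluorescence was baseline-corrected, averaged over duplicate spots, Z-normalized and averaged across five repeats.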

GST-tagged Cn [3] = assay: as above; conditions: max over the duplicate spots (Location on chip)
[4] = target: T2, catalytic domain of Calcineurin (Cn A), residues 2-347 with Y341S, L343A, M347D (UniProt Q08209 2-347, Y341S | L343A | M347D); assay: fluorescence polarisation; competition: variable concentrations of non-labeled peptide added to 100 nM FITC-labeled PVIVIT peptide and 4 uM Cn A, 96-well plate, triplicate; fitted to a single site inhibition model; conditions: both partners purified
T2 construct: Calcineurin catalytic domain (calcineurin A), residues 2-347, with substitutions Y341S, L343A, M347D; Expressed as a cleavable GST fusion; source: E. coli BL21, purified (Glutathione Sepharose 4 Fast Flow, size exclusion on Superdex 75)
T2 sequence (Q08209 2-347 Y341S/L343A/M347D): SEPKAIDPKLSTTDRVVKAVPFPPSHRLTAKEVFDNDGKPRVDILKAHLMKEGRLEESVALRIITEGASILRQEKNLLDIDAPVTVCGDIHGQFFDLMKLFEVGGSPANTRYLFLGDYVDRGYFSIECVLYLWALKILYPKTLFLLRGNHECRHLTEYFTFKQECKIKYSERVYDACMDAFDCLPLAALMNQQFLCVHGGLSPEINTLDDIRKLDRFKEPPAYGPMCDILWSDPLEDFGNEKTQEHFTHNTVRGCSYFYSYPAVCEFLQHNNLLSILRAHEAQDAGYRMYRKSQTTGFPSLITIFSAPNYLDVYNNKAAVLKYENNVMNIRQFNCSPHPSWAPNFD

T1 sequence (Q08209 2-347 Y341S/L343A/M347D): as above

Ac-AAGAGVGIVITVTEAE-NH2 [rbmAKAP79] was tested, and the “Ability to compete with PVIVIT for Cn binding” value [1] was “successfully competed with PVIVIT binding”.

Ac-TFHTNPQYRIKLEEPD-NH2 [rbmCAPN11_2] showed an IC50 [1] greater than 257 µM.

Ac-TFWTNPQYRIKLEEAD-NH2 [rbmCAPN11_3] gave an IC50 [1] greater than 257 µM.

Ac-TTAMNPQFFVQIPRTA-NH2 [CAPN11] gave an IC50 [1] greater than 257 µM.

For Ac-ADGAGVGIVITVTEAE-NH2 [rbmAKAP79_2], the “Ability to compete with PVIVIT for Cn binding” value [1] was “successfully competed with PVIVIT binding”.

With Ac-RTYINPFMLFEDMGSR-NH2 [rbmSFB3] the IC50 [1] was greater than 257 µM.

With GNKEFSPLNVEGLSGN [Seqshuffled_9463] the “Chip Fluorescence (mean)” value (GST-tagged Cn [2]) was 0.833 and the “Chip Fluorescence (max)” value (GST-tagged Cn [3]) was 2.018.

With QWSLGVGIVITVTETM [SeqRBM_1755] the “Chip Fluorescence (mean)” value (GST-tagged Cn [2]) was 0.7956 and the “Chip Fluorescence (max)” value (GST-tagged Cn [3]) was 2.2853.

With TFWTNPQFRIKLEEPD [SeqRBMlowT_8] the “Chip Fluorescence (mean)” value (GST-tagged Cn [2]) was -0.1106 and the “Chip Fluorescence (max)” value (GST-tagged Cn [3]) was 2.218.

With YCQWSNRATQIGHKPT [Seqrandom_9979] the “Chip Fluorescence (mean)” value (GST-tagged Cn [2]) was -0.2818 and the “Chip Fluorescence (max)” value (GST-tagged Cn [3]) was 2.027.

In the case of RQPGQALLELRGHSAS [SeqRBMlowT_7735], the “Chip Fluorescence (mean)” value (GST-tagged Cn [2]) is reported as 0.19 and the “Chip Fluorescence (max)” value (GST-tagged Cn [3]) is reported as 2.013.

For PNKICGQRSFDGEHQN [Seqshuffled_9648], the “Chip Fluorescence (mean)” value (GST-tagged Cn [2]) was -0.254 and the “Chip Fluorescence (max)” value (GST-tagged Cn [3]) was 2.3848.

With TFWSNPQFRLKLEDPD [SeqRBMlowT_6883] the “Chip Fluorescence (mean)” value (GST-tagged Cn [2]) was 1.226 and the “Chip Fluorescence (max)” value (GST-tagged Cn [3]) was 2.274.

In the case of RSKFIPKLSLQSPVHH [SeqRBMlowT_1791], the “Chip Fluorescence (mean)” value (GST-tagged Cn [2]) is reported as 0.1659 and the “Chip Fluorescence (max)” value (GST-tagged Cn [3]) is reported as 2.2877.

In the case of TFWMNPQYRITLEEPD [SeqRBMlowT_2265], the “Chip Fluorescence (mean)” value (GST-tagged Cn [2]) is reported as 0.1767 and the “Chip Fluorescence (max)” value (GST-tagged Cn [3]) is reported as 2.207.

In the case of KKMSPPCITITPAPGA [SeqRBMlowT_7625], the “Chip Fluorescence (mean)” value (GST-tagged Cn [2]) is reported as -0.7518 and the “Chip Fluorescence (max)” value (GST-tagged Cn [3]) is reported as 2.125.

In the case of YTQIFPKCAMTIIKRK [Seqrandom_9966], the “Chip Fluorescence (mean)” value (GST-tagged Cn [2]) is reported as 0.5369 and the “Chip Fluorescence (max)” value (GST-tagged Cn [3]) is reported as 2.341.

For GTDLRQQTAAQPNDGA [Seqshuffled_4362], the “Chip Fluorescence (mean)” value (GST-tagged Cn [2]) was 0.6141 and the “Chip Fluorescence (max)” value (GST-tagged Cn [3]) was 2.523.

HSKLIPKLSIQSPVEH [SeqRBMlowT_3447] was tested, and the “Chip Fluorescence (mean)” value (GST-tagged Cn [2]) was 0.373 and the “Chip Fluorescence (max)” value (GST-tagged Cn [3]) was 2.177.

With ASSANPEITVTPAELP [SeqRBMlowT_4424] the “Chip Fluorescence (mean)” value (GST-tagged Cn [2]) was 0.4111 and the “Chip Fluorescence (max)” value (GST-tagged Cn [3]) was 2.528.

In the case of TFWTNPQYRIKLEEVD [SeqRBMlowT_627], the “Chip Fluorescence (mean)” value (GST-tagged Cn [2]) is reported as -1.639 and the “Chip Fluorescence (max)” value (GST-tagged Cn [3]) is reported as 1.99.

In the case of EPYVAFFYQFSHDPKS [Seqshuffled_9939], the “Chip Fluorescence (mean)” value (GST-tagged Cn [2]) is reported as -0.878 and the “Chip Fluorescence (max)” value (GST-tagged Cn [3]) is reported as 2.266.

In the case of STSSLPTFSFSSPLSS [SeqRBMlowT_2357], the “Chip Fluorescence (mean)” value (GST-tagged Cn [2]) is reported as 0.4296 and the “Chip Fluorescence (max)” value (GST-tagged Cn [3]) is reported as 2.106.

In the case of PGQMQPSINVMAEKNP [SeqRBM_977], the “Chip Fluorescence (mean)” value (GST-tagged Cn [2]) is reported as -0.5544 and the “Chip Fluorescence (max)” value (GST-tagged Cn [3]) is reported as 1.973.

TFFINPQFKASLTEMD [SeqRBM_564] was tested, and the “Chip Fluorescence (mean)” value (GST-tagged Cn [2]) was 0.5882 and the “Chip Fluorescence (max)” value (GST-tagged Cn [3]) was 2.053.

B1: rbmRIPOR2_2 (peptide)
peptide: Ac-HVSSSPRITITPTQHR-NH2
notes: cRBM-designed (low temperature sampling); source: synthetic peptide (peptide2 Inc)
In the case of B1, the IC50 [4] is reported as 200 µM.

B2: rbmTRESK_2 (peptide)
peptide: Ac-ADEAIPEITITSAELP-NH2
notes: as for B1
With B2 the IC50 [4] was 60 µM.

B3: TRESK peptide (peptide)
peptide: Ac-ADEAVPQIIISAEELP-NH2
notes: source: synthetic peptide (peptide2 Inc)
B3 was tested, and the IC50 [4] was 54 µM.

B4: rbmCAPN11 (peptide)
peptide: Ac-TYWTNPQFRVTLEDPD-NH2
notes: cRBM-designed (low temperature sampling); (Schistosoma mansoni CAPN11), 2 mutations; source: synthetic peptide (peptide2 Inc)
Work on B4 yielded an IC50 [4] of 257 µM.

B5: rbmTRESK (peptide)
peptide: Ac-ADEAIPEIVISKPEEP-NH2
notes: as for B1
For B5, the IC50 [4] was 14 µM.

B6: rbmRIPOR2 (peptide)
peptide: Ac-ASVSNPEITVTSAETE-NH2
notes: cRBM-designed; source: synthetic peptide (peptide2 Inc)
For B6, the IC50 [4] was 79 µM.

B7: rbmAKAP79 (peptide)
peptide: Ac-AAGAGVGIVITVTEAE-NH2
notes: as for B1
For B7, the IC50 [4] was 57 µM.

B8: rbmAKAP79_2 (peptide)
peptide: Ac-ADGAGVGIVITVTEAE-NH2
notes: as for B1
B8 was tested, and the IC50 [4] was 69 µM.
